According to patent US20240360075A1, “N-SUBSTITUTED C6 CYCLYL CARBOXAMIDE COMPOUNDS AND USES THEREOF” (ALCON INC., priority 2023, published 2024):

Assays:
[1] = molecular target: mouse cold-menthol receptor TRPM8 (Mus musculus, UniProt Q8R4D5); conditions: described by Behrendt et al.; cited from earlier work
TRPM8 = molecular target: T1, TRPM8 (Homo sapiens, UniProt Q7Z2W7); assay: TRPM8 Human Transient Potential Ion Channel Cell Based Agonist Calcium Flux Assay (Eurofins Cerep item #3316); conditions: for Emax: control activator ligand icilin, read-out: Percent Agonist; for EC50: room temperature
T1 construct: purchased Eurofins (Cerep) item #3316
T1 sequence (Q7Z2W7 whole entry): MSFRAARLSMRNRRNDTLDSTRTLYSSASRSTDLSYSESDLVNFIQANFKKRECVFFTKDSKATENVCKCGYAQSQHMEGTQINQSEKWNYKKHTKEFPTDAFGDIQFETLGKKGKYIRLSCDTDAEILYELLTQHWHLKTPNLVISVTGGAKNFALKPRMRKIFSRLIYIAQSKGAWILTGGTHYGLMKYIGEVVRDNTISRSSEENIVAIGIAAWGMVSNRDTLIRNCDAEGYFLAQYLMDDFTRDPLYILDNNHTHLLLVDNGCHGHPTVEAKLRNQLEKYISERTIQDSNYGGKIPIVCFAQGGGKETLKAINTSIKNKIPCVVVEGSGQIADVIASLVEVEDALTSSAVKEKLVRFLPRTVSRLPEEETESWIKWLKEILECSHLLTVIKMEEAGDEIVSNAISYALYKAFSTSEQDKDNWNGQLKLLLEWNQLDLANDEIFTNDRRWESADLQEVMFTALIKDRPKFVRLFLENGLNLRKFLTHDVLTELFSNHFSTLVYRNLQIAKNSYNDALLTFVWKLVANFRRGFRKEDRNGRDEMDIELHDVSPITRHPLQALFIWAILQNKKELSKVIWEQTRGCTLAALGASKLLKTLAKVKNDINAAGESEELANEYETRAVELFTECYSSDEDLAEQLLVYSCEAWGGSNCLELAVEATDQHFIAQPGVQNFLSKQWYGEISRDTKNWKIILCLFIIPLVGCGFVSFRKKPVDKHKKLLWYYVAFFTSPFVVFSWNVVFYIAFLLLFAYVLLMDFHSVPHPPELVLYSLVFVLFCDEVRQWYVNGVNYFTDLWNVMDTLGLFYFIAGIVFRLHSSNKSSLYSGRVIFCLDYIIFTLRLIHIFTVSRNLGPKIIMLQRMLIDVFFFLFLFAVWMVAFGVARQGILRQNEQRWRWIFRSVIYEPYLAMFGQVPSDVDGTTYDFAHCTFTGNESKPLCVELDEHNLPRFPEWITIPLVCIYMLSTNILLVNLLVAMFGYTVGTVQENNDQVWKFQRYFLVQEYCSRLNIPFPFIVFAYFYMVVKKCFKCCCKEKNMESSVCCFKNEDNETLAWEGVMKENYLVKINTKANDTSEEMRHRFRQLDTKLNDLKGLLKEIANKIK
Description: Compounds can be tested using the commercially available kit from Eurofins “TRPM8 Human Transient Potential Ion Channel Cell Based Agonist Calcium Flux Assay, Cerep” item #3316, or using the assay, referenced by Eurofins, and described in Behrendt et al. “Characterization of the mouse cold-menthol receptor TRPM8 and vanilloid receptor type-1 VR1 using a fluorometric imaging plate reader (FLIPR) assay,” Br J Pharmacol. 2004 Feb;141(4):737-45, which are each incorporated herein by reference. […] 4.
The assay is done at room temperature and measures calcium flux.

mouse cold-menthol receptor TRPM8, sequence (Q8R4D5 whole entry): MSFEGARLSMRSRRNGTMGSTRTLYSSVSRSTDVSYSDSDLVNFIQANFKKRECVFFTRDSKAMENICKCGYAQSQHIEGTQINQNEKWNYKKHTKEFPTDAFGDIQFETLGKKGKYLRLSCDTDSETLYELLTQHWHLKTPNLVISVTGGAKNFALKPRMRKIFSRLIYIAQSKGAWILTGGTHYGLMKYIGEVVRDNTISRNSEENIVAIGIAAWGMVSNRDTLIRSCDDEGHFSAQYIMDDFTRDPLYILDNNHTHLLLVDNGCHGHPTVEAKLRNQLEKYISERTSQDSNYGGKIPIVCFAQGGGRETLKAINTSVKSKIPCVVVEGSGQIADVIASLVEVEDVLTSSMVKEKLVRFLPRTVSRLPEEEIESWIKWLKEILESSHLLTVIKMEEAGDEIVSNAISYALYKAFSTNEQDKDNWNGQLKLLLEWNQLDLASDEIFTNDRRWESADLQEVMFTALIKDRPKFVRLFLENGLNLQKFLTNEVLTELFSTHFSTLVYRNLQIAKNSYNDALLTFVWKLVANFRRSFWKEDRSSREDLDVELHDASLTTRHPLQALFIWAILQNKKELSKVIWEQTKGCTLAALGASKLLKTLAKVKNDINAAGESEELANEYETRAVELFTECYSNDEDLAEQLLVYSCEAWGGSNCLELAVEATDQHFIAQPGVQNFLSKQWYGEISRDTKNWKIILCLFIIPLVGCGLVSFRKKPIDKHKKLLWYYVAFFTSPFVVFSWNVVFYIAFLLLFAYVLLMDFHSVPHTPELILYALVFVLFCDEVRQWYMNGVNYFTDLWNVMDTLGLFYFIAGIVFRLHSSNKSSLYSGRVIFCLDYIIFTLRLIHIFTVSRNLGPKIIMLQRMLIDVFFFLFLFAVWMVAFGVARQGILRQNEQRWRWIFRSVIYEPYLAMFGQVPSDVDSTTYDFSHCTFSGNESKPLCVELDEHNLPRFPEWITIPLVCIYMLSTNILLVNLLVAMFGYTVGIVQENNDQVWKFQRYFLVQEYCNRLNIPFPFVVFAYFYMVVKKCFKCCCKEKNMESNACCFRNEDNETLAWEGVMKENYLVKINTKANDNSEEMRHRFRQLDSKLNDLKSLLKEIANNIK

Row | SMILES | Emax (TRPM8) | EC50 (TRPM8) | EC50 [1]
1 | CC(C)[C@H]1CC[C@H](C)C[C@@H]1O [(+)menthol] |  |  | 14.4 ± 1.3 µM
2 | CC(C)[C@@H]1CC[C@@H](C)C[C@H]1O [(−)menthol] |  |  | 4.1 ± 1.3 µM
3 | CC(C)[C@@H]1CC[C@@H](C)C[C@H]1C(=O)Nc1cncc(Cl)c1 [Compound 80] | > 75% | < 1 µM | 
4 | COc1ccc(NC(=O)[C@@H]2C[C@H](C)CC[C@H]2C(C)C)c(F)n1 [Compound 81] | > 100% | < 0.1 µM | 
5 | COc1ncc(NC(=O)[C@@H]2C[C@H](C)CC[C@H]2C(C)C)cc1F [Compound 82] | > 75% | < 0.5 µM | 
6 | CC(C)[C@@H]1CC[C@@H](C)C[C@H]1C(=O)Nc1ccncn1 [Compound 83] | > 75% | < 5 µM | 
7 | CC(C)[C@@H]1CC[C@@H](C)C[C@H]1C(=O)Nc1ccc(S(C)(=O)=O)nc1 [Compound 84] | > 75% | < 0.1 µM | 
8 | CC(C)[C@@H]1CC[C@@H](C)C[C@H]1C(=O)Nc1ccc(Cl)cn1 [Compound 86] | > 100% | < 5 µM | 
9 | COc1ncc(NC(=O)[C@@H]2C[C@H](C)CC[C@H]2C(C)C)cc1C [Compound 88] | > 35% | < 5 µM | 
10 | CC(C)[C@@H]1CC[C@@H](C)C[C@H]1C(=O)NCC1CC1(F)F (stereo partly shown) [Compound 89] | > 75% | < 1 µM | 
11 | C=C(C)[C@@H]1CC[C@@H](C)C[C@H]1O [Coolact P] |  |  | 66 ± 20 µM
12 | CC(O)C(=O)O[C@@H]1C[C@H](C)CC[C@H]1C(C)C (stereo partly shown) [FrescolatML] |  |  | 3.3 ± 1.5 µM
13 | C[C@@H]1CC[C@@H](C(C)(C)O)[C@H](O)C1 [PMD38] |  |  | 31 ± 1.1 µM
14 | CCNC(=O)C1CC(C)CCC1C(C)C (stereo not shown) [WS-3] |  |  | 3.7 ± 1.7 µM
15 | CNC(=O)C(C)(C(C)C)C(C)C [WS-23] |  |  | 44 ± 7.3 µM

The next lines start with results.

Row | Emax (TRPM8) | EC50 (TRPM8) | SMILES | EC50 [1]
16 | > 75% | < 1 µM | CC(C)[C@@H]1CC[C@@H](C)C[C@H]1C(=O)NCCC1CC1(F)F (stereo partly shown) [Compound 91] | 
17 | > 75% | < 10 µM | CC(C)[C@@H]1CC[C@@H](C)C[C@H]1C(=O)NCC1(C#N)CC1 [Compound 93] | 
18 | > 75% | < 0.5 µM | CC(C)[C@@H]1CC[C@@H](C)C[C@H]1C(=O)N[C@H]1CCC(F)(F)C1 [Compound 94] | 
19 |  | > 10 µM | CC(C)[C@@H]1CC[C@@H](C)C[C@H]1C(=O)N1CC(C)(CC(F)F)C1 [Compound 95] | 
20 |  | > 10 µM | CC(C)[C@@H]1CC[C@@H](C)C[C@H]1C(=O)NCC#N [Compound 97] | 
21 | > 75% | < 0.5 µM | CC(C)[C@@H]1CC[C@@H](C)C[C@H]1C(=O)N[C@@H]1CCC(F)(F)C1 [Compound 98] | 
22 | > 75% | < 10 µM | CC(C)[C@@H]1CC[C@@H](C)C[C@H]1C(=O)NCCC#N [Compound 99] | 
23 | > 35% |  | CC(C)[C@@H]1CC[C@@H](C)C[C@H]1C(=O)NN1CCOCC1 [Compound 100] | 
24 | > 75% | < 5 µM | C#CCNC(=O)[C@@H]1C[C@H](C)CC[C@H]1C(C)C [Compound 101] | 
25 | > 50% | < 10 µM | CC(C)[C@@H]1CC[C@@H](C)C[C@H]1C(=O)NC1CCC(S(C)(=O)=O)C1 (stereo partly shown) [Compound 106] | 
26 | > 100% | < 0.5 µM | C=C(C)[C@@H]1CC[C@@H](C)C[C@H]1C(=O)Nc1ccc(OC)cc1 [Compound 107] | 
27 | > 5% | > 10 µM | COc1ccc(NC(=O)[C@@H]2C[C@H](C)CC[C@H]2C(C)=O)cc1 [Compound 108] | 
28 | > 75% | < 5 µM | COC(=O)C12CC(NC(=O)c3cc(C)ccc3C(C)C)(C1)C2 [Compound 170] | 
29 |  | > 10 µM | COC12CCC(NC(=O)[C@H]3CCC[C@@H](N)C3)(CC1)CC2 [Compound 171] | 
30 | > 100% | < 3 µM | COC12CCC(NC(=O)c3cc(Cl)ccc3C(C)C)(CC1)CC2 [Compound 172] | 
31 |  | > 10 µM | COC12CCC(NC(=O)[C@H]3CCC[C@@H](NC(C)=O)C3)(CC1)CC2 [Compound 173] | 
32 |  | > 10 µM | COc1ccc(NC(=O)c2cccc(C(F)(F)F)c2)cc1 [Compound 174] | 
33 |  | > 10 µM | COc1ccc(NC(=O)[C@H]2CCC[C@@H](O)C2)cc1 [Compound 177] | 
